According to patent US20180237362A1, “NOVEL POLYGODIAL ANALOGS FOR THE TREATMENT OF CANCER AND OTHER PROLIFERATIVE DISEASES” (THE BOARD OF REGENTS OF THE UNIVERSITY OF TAXAS SYSTEM, priority 2015, published 2018):
Read-outs that look alike come from different tables or passages of the source.

What was measured:
[1] = tested on: human A549 non-small cell lung cancer (NSCLC); assay: MTT antiproliferative assay, A549; assay type: cell-based; details: for GI50: 72 h treatment, MTT assay, sextuplicates, read-out: GI50 in vitro values, A549
Protocol: (§1) Human mammary carcinoma MCF-7 (ATCC HTB22) cells were cultured in RPMI supplemented with 10% FBS. The U87 cells (ATCC HTB-14) were cultured in DMEM culture medium, while the A549 cells (DSMZ ACC107) were cultured in RPMI culture medium supplemented with 10% heat-inactivated FBS. The GBM Hs683 (ATCC HTB-138) cells were cultivated in DMEM supplemented with 10% FBS. The human uterine sarcoma MES-SA (ATCC CRL1966) and MES-SA/D×5 cells were cultured in RPMI-1640 medium supplemented with 10% FBS with MES SA/D×5 maintained in the presence of 500 nM Doxorubicin (Sigma). SKMEL-28 cells (ATCC HTB72) and U373 GBM cells (ECACC 08061901) were cultured in RPMI culture medium supplemented with 10% heat-inactivated FBS. Cell culture media were supplemented with 4 mM glutamine (Lonza code BE17-605E), 100 μg/mL gentamicin (Lonza code 17-5182), and penicillin-streptomycin (200 units/ml and 200 μg/ml) (Lonza code 17-602E). The MDA-MB-231 (ATCC HTB-26) epithelial mammary adenocarcinoma cells were cultured in Eagle's minimum essential medium (EMEM; Invitrogen) containing 5% fetal calf serum (FCS, Cambrex), 2 mM L-glutamine (Invitrogen), 0.06% HEPES (Invitrogen) and penicillin (50 IU/ml)/streptomycin (50 µg/ml; Invitrogen) at 37° C. in a humidified atmosphere of 5% CO2 in air. Transformed mouse NPCs were cultured in suspension under neurosphere conditions at 37° C. in a humidified atmosphere of […] and 5% CO2 in DMEM F12 (Invitrogen 11320-074) supplemented with 1×B27 supplement (Invitrogen 17504-044), 5% penicillin-streptomycin (Biochrom 10378-017), 10 ng/ml EGF (R&D systems 236-EG), 10 ng/ml FGF (PeproTech 100-18B).
(§2) Antiproliferative properties of the synthesized compounds were evaluated by the MTT assay. All compounds were dissolved in DMSO at a concentration of either 100 μM or 50 μM prior to cell treatment. The cells were trypsinized and seeded at various cell concentrations depending on the cell type. The cells were grown for 24 h to 72 h, treated with compounds at concentrations ranging from 0.001 to 100 μM and incubated for 48 or 72 h in 100 or 200 μL media depending on the cell line used. The number of experiments and replicates varied depending on the cell line. Cells treated with 0.1% DMSO were used as a negative control; 1 μM PAO was used as a positive control.
(§3) The synthesized C12-Wittig derivatives were evaluated for antiproliferative activities in a panel of cancer cell lines that included apoptosis-resistant human U373 glioblastoma (GBM) (Lefranc et al., 2013), human A549 non-small cell lung cancer (NSCLC) and human SKMEL-28 melanoma (Mathieu et al., 2009) as well as apoptosis-sensitive human Hs683 anaplastic oligodendroglioma (Lefranc et al., 2013) and human MCF-7 breast cancer (Frolova et al., 2013).

human SKMEL-28 melanoma = assay: MTT antiproliferative assay, SKMEL-28; assay type: cell-based; details: sextuplicates, read-out: GI50 in vitro values, SKMEL-28
Protocol: as §1, §2, §3

[2] = tested on: human U373 glioblastoma (GBM); assay: MTT antiproliferative assay, U373; assay type: cell-based; details: 72 h treatment, sextuplicates, read-out: GI50 in vitro values, U373
Protocol: as §1, §2, §3

[3] = tested on: MDA-MB-231 breast cancer cells expressing TRPV1; assay: Intracellular Ca2+ measurements, MDA-MB-231; assay type: cell-based, human; details: 1 at 80 μM, 5 at 20 μM; Fura-2
Protocol: Human mammary carcinoma MCF-7 (ATCC HTB22) cells were cultured in RPMI supplemented with 10% FBS. The U87 cells (ATCC HTB-14) were cultured in DMEM culture medium, while the A549 cells (DSMZ ACC107) were cultured in RPMI culture medium supplemented with 10% heat-inactivated FBS. The GBM Hs683 (ATCC HTB-138) cells were cultivated in DMEM supplemented with 10% FBS. The human uterine sarcoma MES-SA (ATCC CRL1966) and MES-SA/D×5 cells were cultured in RPMI-1640 medium supplemented with 10% FBS with MES SA/D×5 maintained in the presence of 500 nM Doxorubicin (Sigma). SKMEL-28 cells (ATCC HTB72) and U373 GBM cells (ECACC 08061901) were cultured in RPMI culture medium supplemented with 10% heat-inactivated FBS. Cell culture media were supplemented with 4 mM glutamine (Lonza code BE17-605E), 100 μg/mL gentamicin (Lonza code 17-5182), and penicillin-streptomycin (200 units/ml and 200 μg/ml) (Lonza code 17-602E). […]
Intracellular Ca^2+ measurements. Cells were grown on glass coverslips for fluorescence imaging. The cytosolic calcium was measured using Fura-2-loaded cells. […] Fluorescence was excited at 350 and 380 nm alternately using a monochromator (Polychrome IV; TILL Photonics, Planegg, Germany), and captured by a Cool SNAP HQ camera (Princeton Instruments, France) after filtration through a long-pass filter (510 nm). […]

HeLa-derived tumors = assay: Mouse xenograft model, HeLa; assay type: in vivo, athymic nude mice; details: for anti-tumor effect, HeLa-derived tumors: 40 μg/100 μl intra-tumor injection every other day for 18 days, polygodial significantly more efficacious than P3; for adverse effects, HeLa xenograft mice: intra-tumor injection every other day for 18 days
Protocol: Six-week old female athymic nude mice were used in laminar air-flow cabinet in pathogen-free conditions. They were acclimated for one week prior to the start of the study and kept at controlled temperature and humidity, with food and water. Mice were injected subcutaneously in the flank with 2×10^6 Cal27 cells or HeLa cells in 0.1 mL of sterile PBS. When the tumors reached 100 mm^3 (Cal27) and 150 mm^3 (HeLa), the mice were stratified into 4 groups, […], polygodial, P10, P3 and P27 at the concentrations noted in the figure legends.

Structure (SMILES) | GI50 ([1]; Homo sapiens, A549) [µM] | GI50 (human SKMEL-28 melanoma; Homo sapiens, SK-MEL-28, 72 h treatment) [µM] | GI50 ([2]; Homo sapiens, U373 MG) [µM] | [Ca2+]i response [3] | anti-tumor effect, HeLa-derived tumors (HeLa-derived tumors) | adverse effects, HeLa xenograft mice (HeLa-derived tumors) | GI50 [1] [µM] | effect on proliferation/viability of all cells, A549 ([1]; apoptosis-resistant A549 NSCLC, concentrations up to 100 μM) | GI50 (human SKMEL-28 melanoma; 72 h treatment) [µM] | GI50 [2] [µM]
CC1(C)CCC[C@]2(C)[C@@H](C=O)C(C=O)=CC[C@@H]12 [Compound 1, Polygodial] | 90 | 65 | > 99 | transient and synchronous [Ca^2+]i increase | significant anti-tumor effects | marked inflammatory response |  |  |  | 
COC(=O)/C=C/C1=CC[C@H]2C(C)(C)CCC[C@]2(C)[C@H]1C=O [Compound 5] |  |  |  | sustained and asynchronous [Ca^2+] increases | significant anti-tumor effects | No observable adverse effects | 21 | growth inhibitory properties against most of the cells | 27 | 22
